Bridge positions count the residues as written; N and C are the ends. Peptide text beside a SMILES is read from it.
Experiments:
Kallikrein-5 [1] = biological target: T1, Kallikrein-5 (Homo sapiens, UniProt Q9Y337); test: Inhibition of recombinant human KLK5 expressed in expressed in Pichia pastoris X-33 cells using Boc-VPR-MCA as susbtrate measured every 60 secs for 10 mins by fluorescence based assay
T1 sequence (Q9Y337 whole entry): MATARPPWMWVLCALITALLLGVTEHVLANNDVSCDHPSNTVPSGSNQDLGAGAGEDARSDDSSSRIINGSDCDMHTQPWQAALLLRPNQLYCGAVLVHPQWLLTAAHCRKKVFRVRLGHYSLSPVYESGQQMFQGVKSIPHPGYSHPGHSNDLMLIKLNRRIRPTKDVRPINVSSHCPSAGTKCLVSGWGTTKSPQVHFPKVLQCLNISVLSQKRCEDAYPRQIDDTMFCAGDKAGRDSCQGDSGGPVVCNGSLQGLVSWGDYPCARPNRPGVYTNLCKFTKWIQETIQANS

Kallikrein-7 [2] = biological target: T2, Kallikrein-7 (Homo sapiens, UniProt P49862); test: Inhibition of recombinant human KLK7 expressed in expressed in Pichia pastoris X-33 cells using KHLY-pNA as susbtrate measured every 15 secs for 10 mins by colorimetric analysis
Target sequence in this assay (P49862 whole entry): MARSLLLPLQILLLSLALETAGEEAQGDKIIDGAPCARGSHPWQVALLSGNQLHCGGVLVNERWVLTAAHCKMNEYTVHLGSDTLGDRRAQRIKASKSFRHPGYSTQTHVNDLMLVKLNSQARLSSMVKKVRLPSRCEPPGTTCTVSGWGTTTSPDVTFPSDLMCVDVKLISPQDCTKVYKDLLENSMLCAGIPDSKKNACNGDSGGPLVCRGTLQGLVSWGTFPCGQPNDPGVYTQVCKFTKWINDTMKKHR

[3] = Inhibition of human cationic trypsin using Boc-VPR-MCA as susbtrate measured every 60 secs for 10 mins by fluorescence based assay
[4] = biological target: T3, Suppressor of tumorigenicity 14 protein (Homo sapiens, UniProt Q9Y5Y6); test: Inhibition of recombinant human matriptase using Boc-QAR-MCA as susbtrate measured every 60 secs for 10 mins by fluorescence based assay
T3 sequence (Q9Y5Y6 whole entry): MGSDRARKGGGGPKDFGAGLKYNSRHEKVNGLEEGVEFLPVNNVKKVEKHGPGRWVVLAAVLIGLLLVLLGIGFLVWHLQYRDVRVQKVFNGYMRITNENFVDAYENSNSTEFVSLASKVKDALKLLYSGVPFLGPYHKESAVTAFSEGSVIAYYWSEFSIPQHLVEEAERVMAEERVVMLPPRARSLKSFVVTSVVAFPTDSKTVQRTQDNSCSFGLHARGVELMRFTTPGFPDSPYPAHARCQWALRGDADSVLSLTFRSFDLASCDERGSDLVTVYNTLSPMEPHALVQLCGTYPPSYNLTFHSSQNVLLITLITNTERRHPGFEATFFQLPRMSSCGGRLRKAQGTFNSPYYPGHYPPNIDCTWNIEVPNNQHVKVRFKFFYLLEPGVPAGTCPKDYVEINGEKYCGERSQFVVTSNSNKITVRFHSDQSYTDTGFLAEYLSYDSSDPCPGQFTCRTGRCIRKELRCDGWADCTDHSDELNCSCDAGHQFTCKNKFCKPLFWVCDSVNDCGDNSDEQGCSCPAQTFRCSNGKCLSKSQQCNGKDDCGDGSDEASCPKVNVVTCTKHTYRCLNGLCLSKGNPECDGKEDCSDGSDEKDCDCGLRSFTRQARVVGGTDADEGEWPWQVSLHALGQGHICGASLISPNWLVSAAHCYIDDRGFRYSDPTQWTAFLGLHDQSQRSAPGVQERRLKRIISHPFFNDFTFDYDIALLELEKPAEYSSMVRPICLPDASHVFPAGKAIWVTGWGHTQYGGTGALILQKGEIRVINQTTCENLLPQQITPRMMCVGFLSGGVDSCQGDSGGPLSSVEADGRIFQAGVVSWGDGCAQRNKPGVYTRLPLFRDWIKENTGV

Kallikrein-7 [5] = biological target: T2, Kallikrein-7; test: Inhibition of recombinant human KLK7 expressed in expressed in Pichia pastoris X-33 cells at 5 uM using KHLY-pNA as susbtrate measured every 15 secs for 10 mins by colorimetric analysis relative to control
Target sequence in this assay (P49862 30-253 limits assumed): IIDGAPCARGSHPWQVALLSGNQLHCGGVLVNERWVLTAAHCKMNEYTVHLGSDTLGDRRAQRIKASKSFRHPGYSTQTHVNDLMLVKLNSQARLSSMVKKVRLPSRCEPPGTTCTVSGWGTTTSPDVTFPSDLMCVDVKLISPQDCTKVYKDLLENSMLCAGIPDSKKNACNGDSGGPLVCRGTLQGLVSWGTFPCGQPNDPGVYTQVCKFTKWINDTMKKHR

Kallikrein-7 [6] = biological target: T2, Kallikrein-7; test: Inhibition of recombinant human KLK7 expressed in expressed in Pichia pastoris X-33 cells at 10 uM using KHLY-pNA as susbtrate measured every 15 secs for 10 mins by colorimetric analysis relative to control
Target sequence in this assay (P49862 30-253 limits assumed): as above

Homo sapiens = species on record: Homo sapiens; test: Inhibition of human cationic trypsin at 10 uM using Boc-VPR-MCA as susbtrate measured every 60 secs for 10 mins by fluorescence based assay relative to control
[7] = biological target: T4, Suppressor of tumorigenicity 14 protein (Homo sapiens) (UniProt Q9Y5Y6); test: Inhibition of recombinant human matriptase at 10 uM using Boc-QAR-MCA as susbtrate measured every 60 secs for 10 mins by fluorescence based assay relative to control
T4 sequence (whole entry): T3 sequence (Q9Y5Y6 whole entry)

Kallikrein-7 [8] = biological target: T2, Kallikrein-7; test: Inhibition of recombinant KLK7 (unknown origin) expressed in Pichia pastoris X-33 cells using p-NA peptide as substrate measured every 10 secs for 300 secs by spectrophotometric analysis
Target sequence in this assay (P49862 whole entry): as the sequence (P49862 whole entry) above

Kallikrein-5 [9] = biological target: T1, Kallikrein-5; test: Inhibition of recombinant KLK5 (unknown origin) expressed in Pichia pastoris X-33 cells using pNA peptide as susbtrate measured every 10 secs for 300 secs by spectrometric analysis
[10] = biological target: T3, Suppressor of tumorigenicity 14 protein; test: Inhibition of recombinant human matriptase catalytic domain using Boc-QARAMC as substrate preincubated for 1 hr followed by substrate addition

N=C(N)NCCC[C@@H]1NC(=O)[C@H](Cc2cnc[nH]2)NC(=O)[C@@H]2CSSC[C@H](NC(=O)[C@H](CCC(=O)O)NC(=O)[C@@H]3CCCN3C(=O)[C@@H]3CCCN3C(=O)[C@H](Cc3ccc(O)cc3)NC(=O)[C@H](CO)NC1=O)C(=O)N[C@@H](Cc1c[nH]c3ccccc13)C(=O)N1CCC[C@H]1C(=O)N[C@@H](CC(N)=O)C(=O)NCC(=O)N[C@@H](Cc1ccccc1)C(=O)N2
Ki (Kallikrein-5 [1]): 2.4 nM
IC50 (Kallikrein-7 [2]): > 5000 nM
IC50 [3]: > 10000 nM
IC50 [4]: > 10000 nM
inhibition (Kallikrein-7 [5]): < 50%

N=C(N)NCCC[C@@H]1NC(=O)[C@H](Cc2cnc[nH]2)NC(=O)[C@@H]2CSSC[C@H](NC(=O)[C@H](CC(=O)O)NC(=O)[C@@H]3CCCN3C(=O)[C@@H]3CCCN3C(=O)[C@H](Cc3ccc(O)cc3)NC(=O)[C@H](CO)NC1=O)C(=O)N[C@@H](Cc1ccccc1)C(=O)N1CCC[C@H]1C(=O)N[C@@H](CC(N)=O)C(=O)NCC(=O)N[C@@H](Cc1ccccc1)C(=O)N2 (cyclo(CFPNGFCHRSYPPD); disulfide 1-7)
Ki (Kallikrein-5 [1]): 8.9 nM

N=C(N)NCCC[C@@H]1NC(=O)[C@H](Cc2cnc[nH]2)NC(=O)[C@@H]2CSSC[C@H](NC(=O)[C@H](CCC(=O)O)NC(=O)[C@@H]3CCCN3C(=O)[C@@H]3CCCN3C(=O)[C@H](Cc3ccc(O)cc3)NC(=O)[C@H](CO)NC1=O)C(=O)N[C@@H](Cc1ccccc1)C(=O)N1CCC[C@H]1C(=O)N[C@@H](CC(N)=O)C(=O)NCC(=O)N[C@@H](Cc1ccccc1)C(=O)N2 (cyclo(CFPNGFCHRSYPPE); disulfide 1-7)
Ki (Kallikrein-5 [1]): 3.7 nM
IC50 (Kallikrein-7 [2]): > 10000 nM
IC50 [3]: > 10000 nM
IC50 [4]: > 10000 nM
inhibition (Kallikrein-7 [6]): < 50%
inhibition (Homo sapiens): < 50%
inhibition [7]: < 50%

CC[C@H](C)[C@@H]1NC(=O)[C@@H]2CCCN2C(=O)[C@@H]2CCCN2C(=O)[C@H]([C@@H](C)CC)NC(=O)[C@H](CO)NC(=O)[C@H](CCCCN)NC(=O)[C@H]([C@@H](C)O)NC(=O)[C@@H]2CSSC[C@H](NC1=O)C(=O)N[C@@H](Cc1ccccc1)C(=O)N1CCC[C@H]1C(=O)N[C@@H](CC(N)=O)C(=O)NCC(=O)N[C@@H](CCCNC(=N)N)C(=O)N2 (cyclo(CFPNGRCTKSIPPI); disulfide 1-7)
IC50 (Kallikrein-7 [8]): > 10000 nM
Ki (Kallikrein-5 [9]): 143 nM
Ki [10]: 200 nM

N=C(N)NCCC[C@@H]1NC(=O)[C@H](CC(N)=O)NC(=O)[C@@H]2CSSC[C@H](NC(=O)[C@H](CC(=O)O)NC(=O)[C@@H]3CCCN3C(=O)[C@@H]3CCCN3C(=O)[C@H](Cc3ccc(O)cc3)NC(=O)[C@H](CO)NC1=O)C(=O)N[C@@H](Cc1ccccc1)C(=O)N1CCC[C@H]1C(=O)N[C@@H](CC(N)=O)C(=O)NCC(=O)N[C@@H](Cc1ccc(O)cc1)C(=O)N2 (cyclo(CFPNGYCNRSYPPD); disulfide 1-7)
Ki (Kallikrein-5 [1]): 0.73 nM

N=C(N)NCCC[C@@H]1NC(=O)[C@H](CC(N)=O)NC(=O)[C@@H]2CSSC[C@H](NC(=O)[C@H](CCC(=O)O)NC(=O)[C@@H]3CCCN3C(=O)[C@@H]3CCCN3C(=O)[C@H](Cc3ccc(O)cc3)NC(=O)[C@H](CO)NC1=O)C(=O)N[C@@H](Cc1ccccc1)C(=O)N1CCC[C@H]1C(=O)N[C@@H](CC(N)=O)C(=O)NCC(=O)N[C@@H](Cc1ccc(O)cc1)C(=O)N2 (cyclo(CFPNGYCNRSYPPE); disulfide 1-7)
Ki (Kallikrein-5 [1]): 0.34 nM
IC50 (Kallikrein-7 [2]): > 10000 nM
IC50 [3]: > 2000 nM
IC50 [4]: > 10000 nM
